Values belong to the compound of their own block, whether it stands above or below them.
Key:
MCF7 [1] = assay: Anticancer activity against human MCF7 cells assessed as inhibition of cell viability; type: functional, cell-based
HepG2 [2] = assay: Anticancer activity against human HepG2 cells; type: functional, cell-based
MCF7 [3] = assay: Cytotoxicity against human MCF7 cells incubated for 48 hrs by SRB assay relative to control; type: functional; set-up: concentration or dose not given beside the values
HepG2 [4] = assay: Cytotoxicity against human HepG2 cells incubated for 48 hrs by SRB assay relative to control; type: functional; set-up: concentration or dose not given beside the values
[5] = Cytotoxicity against human HBF4 cells incubated for 48 hrs by SRB assay relative to control; type: toxicity, cell-based; set-up: concentration or dose not given beside the values; conditions: hbf4, 48 h
HCT-116 [6] = assay: Cytotoxicity against human HCT-116 cells; type: functional, cell-based
SW-620 = assay: Cytotoxicity against human SW620 cells; type: functional, cell-based
PC-3 [7] = assay: Cytotoxicity against human PC-3 cells; type: functional, cell-based
A549 [8] = assay: Cytotoxicity against human A549 cells; type: functional, cell-based
HepG2 [9] = assay: Anticancer activity against human HepG2 cells assessed as inhibition of cell viability; type: functional, cell-based
HCT-116 [10] = assay: Anticancer activity against human HCT-116 cells assessed as inhibition of cell growth; type: functional, cell-based
PC-3 [11] = assay: Anticancer activity against human PC-3 cells assessed as inhibition of cell growth; type: functional, cell-based
L02 = assay: Antiproliferative activity against human L02 cells by MTT assay; type: functional, cell-based
A549 [12] = assay: Cytotoxicity against human A549 cells assessed as inhibition of tumor cell proliferation incubated for 72 hrs by MTT assay; type: functional, cell-based; conditions: A549, 72 h
K562 = assay: Anticancer activity against human K562 cells; type: functional, cell-based
[13] = target: T1, Amine oxidase [flavin-containing] A (Rattus norvegicus, UniProt P21396); assay: Inhibition of rat brain MAO-A relative to control; type: tissue-based
T1 sequence (P21396 whole entry): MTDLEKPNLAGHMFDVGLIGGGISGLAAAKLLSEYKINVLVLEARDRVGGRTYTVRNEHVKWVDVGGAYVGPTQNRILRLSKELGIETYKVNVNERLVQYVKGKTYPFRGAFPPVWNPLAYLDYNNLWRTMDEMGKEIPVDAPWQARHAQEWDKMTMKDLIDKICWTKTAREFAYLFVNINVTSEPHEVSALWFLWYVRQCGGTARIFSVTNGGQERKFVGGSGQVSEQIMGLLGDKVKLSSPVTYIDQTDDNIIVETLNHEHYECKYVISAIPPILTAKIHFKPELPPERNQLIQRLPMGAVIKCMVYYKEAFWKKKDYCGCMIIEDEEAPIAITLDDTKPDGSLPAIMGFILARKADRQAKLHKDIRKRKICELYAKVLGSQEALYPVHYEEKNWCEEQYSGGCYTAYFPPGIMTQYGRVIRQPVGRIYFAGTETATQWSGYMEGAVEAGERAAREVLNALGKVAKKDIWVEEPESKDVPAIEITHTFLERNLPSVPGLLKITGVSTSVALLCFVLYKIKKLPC

A549 [14] = assay: Anticancer activity against human A549 cells assessed as inhibition of cell proliferation; type: functional, cell-based
MCF7 [15] = assay: Anticancer activity against human MCF7 cells; type: functional, cell-based
HeLa = assay: Anticancer activity against human HeLa cells; type: functional, cell-based
DU-145 = assay: Anticancer activity against human DU-145 cells; type: functional, cell-based
MCF7 [16] = assay: Anticancer activity against human MCF7 cells assessed as reduction in cell viability incubated for 48 hrs by MTT assay; type: functional, cell-based; conditions: MCF7, 48 h
B16-F10 = assay: Anticancer activity against mouse B16-F10 cells incubated for 48 hrs by MTT assay; type: functional, cell-based; conditions: B16-F10, 48 h
A549 [17] = assay: Anticancer activity against human A549 cells assessed as reduction in cell viability incubated for 48 hrs by MTT assay; type: functional, cell-based; conditions: A549, 48 h
MCF7 [18] = assay: Growth inhibition of human MCF7 cells by SRB assay; type: functional
MDA-MB-435 = assay: Growth inhibition of human MDA-MB-435 cells by SRB assay; type: functional

SMILES: CC1(C)CC(=O)C2=C(C1)N(c1ccccc1)C(N)=C(C#N)C21C(=O)Nc2ccccc21 (configuration not stated)
Activity (MCF7 [3]): 76%
Activity (HepG2 [4]): 39%
Activity [5]: 23%

SMILES: CN1CCN(C(=O)C2CN(C(=O)N3CCCCC3)C3(C(=O)Nc4cc(Cl)ccc43)C2c2ccccc2O)CC1 (configuration not stated)
IC50 (HCT-116 [6]): > 50 µM
IC50 (SW-620): 31.6 µM
IC50 (PC-3 [7]): > 50 µM
IC50 (A549 [8]): 1.17 µM

SMILES: Cc1coc2c1C(=O)C(=O)c1c-2ccc2c1CCCC2(C)C [TANSHINONE IIA]
IC50 (L02): 65.3 µM

SMILES: C[C@]12CC[C@H](O)CC1=CCC1C2CC[C@@]2(C)C1CC[C@@H]2C1=CC2(C(=O)Nc3ccc(Cl)cc32)C(C#N)=C(N)N1 (some centres not stated)
IC50 (A549 [12]): 11.5 µM

SMILES: CCC(=O)N1CC2C(=O)Oc3ccccc3C2C12C(=O)Nc1ccccc12 (configuration not stated)
IC50 (HCT-116 [6]): 10.2 µM
IC50 (SW-620): 4.28 µM
IC50 (PC-3 [7]): 46.7 µM
IC50 (A549 [8]): 11 µM

SMILES: CCN1C(=O)[C@@]2(c3cccc(Cl)c31)[C@H](O)c1ccccc1[C@@H]2[C@]1(CN2CCCC2)C(=O)N(CC)c2c(Cl)cccc21
IC50 (K562): 8.8 µM

SMILES: CCOC(=O)C1=C2N=C(N)c3ccccc3N2C2=C(C(=O)CC(C)(C)C2)C12C(=O)Nc1ccccc12 (configuration not stated)
Activity (MCF7 [3]): 76%
Activity (HepG2 [4]): 29%
Activity [5]: 30%

SMILES: CCOC(=O)C1=C2N=C(N)C3=C(SC4CCCCC34)N2C2=C(C(=O)CC(C)(C)C2)C12C(=O)Nc1ccccc12 (configuration not stated)
Activity (MCF7 [3]): 80%
Activity (HepG2 [4]): 25%
Activity [5]: 17%

SMILES: CN1C(=O)[C@@]2(c3cccc(Cl)c31)[C@H](O)c1ccccc1[C@@H]2[C@]1(CN2CCCCC2)C(=O)N(C)c2c(Cl)cccc21
IC50 (K562): 32.8 µM

SMILES: O=C1OCC2Nc3ccccc3NC3(C(=O)N(Cc4ccccc4)c4ccc(Cl)cc43)C12 (configuration not stated)
IC50 (A549 [14]): 3.89 µM
IC50 (MCF7 [15]): 9.28 µM
IC50 (HeLa): 15.9 µM
IC50 (DU-145): 2.19 µM

SMILES: CCC(=O)N1CC2C(=O)Oc3ccccc3C2C12C(=O)Nc1cc(Cl)ccc12 (configuration not stated)
IC50 (HCT-116 [6]): > 50 µM
IC50 (SW-620): < 0.08 µM
IC50 (PC-3 [7]): > 50 µM
IC50 (A549 [8]): > 50 µM

Results, then the compound that gave them:

IC50 (MCF7 [1]): 28 µM
IC50 (HepG2 [2]): 36 µM
SMILES: Cc1ccc2c(c1)C1(C(=O)N2)C(C#N)=C(N)NC2=C1CCCC2 (configuration not stated)

IC50 (HepG2 [9]): 0.599 µM
IC50 (HCT-116 [10]): 0.107 µM
IC50 (PC-3 [11]): 9.49 µM
SMILES: CC1CCC2(CC1)SC/C(=N\c1nnc(SC3OC[C@@H](O)[C@H](O)[C@H]3O)s1)N2c1ccc(F)cc1 (some centres not stated)

IC50 (HepG2 [9]): 0.176 µM
IC50 (HCT-116 [10]): 0.0922 µM
IC50 (PC-3 [11]): 0.121 µM
SMILES: CC(=O)OC[C@H]1OC(Sc2nnc(/N=C3\CSC4(CCCCC4)N3c3ccc(F)cc3)s2)[C@H](OC(C)=O)[C@@H](OC(C)=O)[C@@H]1OC(C)=O (some centres not stated)

IC50 (K562): 21 µM
SMILES: CN1C(=O)[C@@]2(c3cccc(Cl)c31)[C@H](O)c1ccccc1[C@@H]2[C@]1(CN2CCCC2)C(=O)N(C)c2c(Cl)cccc21

inhibition (INH) [13]: 86%
SMILES: CCCN(CCC)C(=O)CSc1nc2c(c(=O)n1CC)C1(CCCCC1)Cc1ccccc1-2

IC50 (MCF7 [1]): 28 µM
IC50 (HepG2 [2]): 26 µM
SMILES: N#CC1=C(N)NC2=C(CCCC2)C12C(=O)Nc1ccc(I)cc12 (configuration not stated)

IC50 (A549 [14]): 1.35 µM
IC50 (MCF7 [15]): 2.24 µM
IC50 (HeLa): 2.29 µM
IC50 (DU-145): 1.15 µM
SMILES: O=C1OCC2Nc3ccccc3NC3(C(=O)N(Cc4ccccc4)c4ccccc43)C12 (configuration not stated)

IC50 (K562): 27.8 µM
SMILES: CCN(CC)C[C@@]1([C@H]2c3ccccc3[C@@H](O)[C@]23C(=O)N(C)c2ccc(C)cc23)C(=O)N(C)c2ccc(C)cc21

IC50 (MCF7 [1]): 18 µM
IC50 (HepG2 [2]): 20 µM
SMILES: N#CC1=C(N)NC2=C(CCCCC2)C12C(=O)Nc1ccccc12 (configuration not stated)

IC50 (MCF7 [16]): 13.1 µM
IC50 (B16-F10): 10.9 µM
IC50 (A549 [17]): 9.58 µM
SMILES: COC1=CC2(C=C(C(=O)Oc3cccc(F)c3F)c3cc(OC)cc(OC)c32)C(OC)=CC1=O (configuration not stated)

IC50 (MCF7 [16]): 15.3 µM
IC50 (B16-F10): 19.3 µM
IC50 (A549 [17]): 17.9 µM
SMILES: COC1=CC2(C=C(C(=O)NNc3ccc(OC(F)(F)F)cc3)c3cc(OC)cc(OC)c32)C(OC)=CC1=O (configuration not stated)

inhibition (INH) [13]: 58%
SMILES: CCn1c(=S)[nH]c2c(c1=O)C1(CCCCC1)Cc1ccccc1-2

GI50 (MCF7 [18]): 53 µM
GI50 (MDA-MB-435): 29.9 µM
SMILES: N#CC1=C(N)OC2=C(C(=O)C=C2)C12C(=O)Nc1ccc(Cl)cc12 (configuration not stated)
